Data as given in patent US20200216416A1, “QUINOLINE COMPOUNDS AS INHIBITORS OF TAM AND MET KINASES” (Array BioPharma Inc., priority 2019, published 2020).
pIC50: −log10 of the molar value.

Tests used:
[1] = molecular target: T1, GST-tagged recombinant human TYRO3 kinase domain (Homo sapiens, UniProt Q06418); assay: TYRO3 Enzyme Assay (LanthaScreen Eu Kinase Binding); conditions: averaged IC50; TYRO3 5 nM; 60-minute incubation at 22° C.; TR-FRET
T1 construct: GST-tagged recombinant human TYRO3 kinase domain; purchased Carna PR7480A
T1 sequence (Q06418 518-790 limits assumed): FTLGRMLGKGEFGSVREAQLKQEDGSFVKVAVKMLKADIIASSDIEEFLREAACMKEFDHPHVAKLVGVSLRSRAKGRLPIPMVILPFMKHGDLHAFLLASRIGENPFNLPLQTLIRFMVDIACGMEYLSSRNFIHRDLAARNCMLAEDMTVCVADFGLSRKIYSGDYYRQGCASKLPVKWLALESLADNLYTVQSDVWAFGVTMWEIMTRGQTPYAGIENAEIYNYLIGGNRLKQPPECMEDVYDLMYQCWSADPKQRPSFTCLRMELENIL
Method in brief: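 Competitive tracer-displacement TR-FRET: 5 nM kinase, 20 nM Alexa-Fluor Tracer 236 and 2 nM Eu-anti-GST with threefold-diluted compound in 25 mM HEPES pH 7.4, 10 mM MgCl2, 0.01% Triton X-100, 2% DMSO, 60 min at 22° C. Ratiometric percent of control fitted to a 4-parameter logistic; IC50 at 50 POC.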

[2] = molecular target: T2, MET (wt) GST-tagged recombinant human MET kinase domain (Homo sapiens, UniProt P08581); assay: c-Met Enzyme Assay, wild type (LanthaScreen Eu Kinase Binding); conditions: averaged IC50; MET (wt) 10 nM; 60-minute incubation at 22° C.; read-out: SigChem WT IC50
T2 construct: GST-tagged recombinant human MET kinase domain; purchased Signal Chem
Description: (§1) The affinity of compound binding to wild type and mutant human MET kinases was measured using Invitrogen's LanthaScreen™ Eu Kinase Binding technology. Briefly, GST-tagged recombinant human MET kinase domain from Signal Chem (see Table 8 below for concentration in assay) was incubated with 50 nM Alexa-Fluor® Tracer 236 (Invitrogen Cat No. PR9078A) and 2 nM Europium-anti-GST (Invitrogen Cat. No. A15116) along with test compound in a buffer consisting of 25 mM HEPES, pH 7.4, 10 mM MgCl2, 0.01% Triton X-100, 1mM DTT, and 2% DMSO. Compounds were typically prepared in a three-fold serial dilution in DMSO and added to the assay to give the appropriate final concentration. After a 60-minute incubation at 22° C., the reaction was measured using a PerkinElmer EnVision multimode plate reader via TR-FRET dual wavelength detection, and the percent of control (POC) calculated using a ratiometric emission factor. […] The POC values were fit to a 4 parameter logistic curve and the IC50 value is point where the curve crosses 50 POC.

[3] = molecular target: T3, human MET kinase del Ex14 (Homo sapiens, UniProt P08581, DEL963-1009); assay: c-Met Enzyme Assay, del Ex14 mutant; assay type: binding; conditions: averaged IC50; del Ex14 5 nM; 60-minute incubation at 22° C.; read-out: Del14 IC50
T3 construct: GST-tagged recombinant human MET kinase domain; purchased Signal Chem
Description: as §1

[4] = molecular target: T4, human MET kinase D1228H (Homo sapiens, UniProt P08581, D1228H); assay: c-Met Enzyme Assay, D1228H mutant; assay type: binding; conditions: averaged IC50; D1228H 2 nM; 60-minute incubation at 22° C.; read-out: D1228 H IC50
T4 construct: GST-tagged recombinant human MET kinase domain; purchased Signal Chem
Description: as §1

[5] = molecular target: T5, human MET kinase F1200I (Homo sapiens, UniProt P08581, F1200I); assay: c-Met Enzyme Assay, F1200I mutant; assay type: binding; conditions: averaged IC50; F1200I 2 nM; 60-minute incubation at 22° C.
T5 construct: GST-tagged recombinant human MET kinase domain; purchased Signal Chem
Description: as §1

[6] = molecular target: T6, human MET kinase Y1230C (Homo sapiens, UniProt P08581, Y1230C); assay: c-Met Enzyme Assay, Y1230C mutant; assay type: binding; conditions: averaged IC50; Y1230C 2 nM; 60-minute incubation at 22° C.; read-out: Y1230 C IC50
T6 construct: GST-tagged recombinant human MET kinase domain; purchased Signal Chem
Description: as §1

[7] = molecular target: T7, human MET kinase Y1230S (Homo sapiens, UniProt P08581, Y1230S); assay: c-Met Enzyme Assay, Y1230S mutant; assay type: binding; conditions: averaged IC50; Y1230S 8 nM; 60-minute incubation at 22° C.; read-out: Y1230 S IC50
T7 construct: GST-tagged recombinant human MET kinase domain; purchased Signal Chem
Description: as §1

T5 sequence (P08581 1078-1345 F1200I limits assumed): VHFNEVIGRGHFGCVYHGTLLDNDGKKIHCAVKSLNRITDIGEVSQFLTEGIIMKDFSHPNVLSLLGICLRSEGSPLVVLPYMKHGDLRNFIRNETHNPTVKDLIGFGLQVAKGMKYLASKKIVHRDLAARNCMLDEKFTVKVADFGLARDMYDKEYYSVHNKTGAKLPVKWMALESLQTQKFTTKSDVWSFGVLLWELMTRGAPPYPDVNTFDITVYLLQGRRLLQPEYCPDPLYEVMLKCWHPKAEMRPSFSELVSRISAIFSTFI
T4 sequence (P08581 1078-1345 D1228H): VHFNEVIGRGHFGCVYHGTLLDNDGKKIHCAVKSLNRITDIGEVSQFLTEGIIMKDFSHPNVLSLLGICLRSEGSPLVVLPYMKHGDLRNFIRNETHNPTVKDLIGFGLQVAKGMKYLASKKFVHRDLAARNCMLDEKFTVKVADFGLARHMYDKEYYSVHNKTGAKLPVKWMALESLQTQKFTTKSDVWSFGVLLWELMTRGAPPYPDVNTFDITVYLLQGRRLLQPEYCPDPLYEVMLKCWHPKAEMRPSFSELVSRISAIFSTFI
T2 sequence (P08581 1078-1345 limits assumed): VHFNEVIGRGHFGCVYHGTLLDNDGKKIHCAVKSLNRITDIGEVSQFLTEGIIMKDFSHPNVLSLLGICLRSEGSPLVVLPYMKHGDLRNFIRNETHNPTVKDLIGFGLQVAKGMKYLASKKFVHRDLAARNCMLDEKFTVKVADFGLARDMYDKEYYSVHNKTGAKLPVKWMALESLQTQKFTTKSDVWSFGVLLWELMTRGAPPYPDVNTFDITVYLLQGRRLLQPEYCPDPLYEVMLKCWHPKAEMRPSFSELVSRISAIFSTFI
T7 sequence (P08581 1078-1345 Y1230S): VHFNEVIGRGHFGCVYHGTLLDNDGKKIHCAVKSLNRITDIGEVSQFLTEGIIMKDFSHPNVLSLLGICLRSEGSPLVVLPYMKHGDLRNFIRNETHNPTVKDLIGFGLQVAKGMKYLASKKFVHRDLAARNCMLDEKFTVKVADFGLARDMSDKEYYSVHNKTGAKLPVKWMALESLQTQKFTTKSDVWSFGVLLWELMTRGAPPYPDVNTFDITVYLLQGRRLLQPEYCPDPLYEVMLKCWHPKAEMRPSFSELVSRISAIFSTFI
T3 sequence (P08581 with tags, fused parts or gaps DEL963-1009 limits assumed): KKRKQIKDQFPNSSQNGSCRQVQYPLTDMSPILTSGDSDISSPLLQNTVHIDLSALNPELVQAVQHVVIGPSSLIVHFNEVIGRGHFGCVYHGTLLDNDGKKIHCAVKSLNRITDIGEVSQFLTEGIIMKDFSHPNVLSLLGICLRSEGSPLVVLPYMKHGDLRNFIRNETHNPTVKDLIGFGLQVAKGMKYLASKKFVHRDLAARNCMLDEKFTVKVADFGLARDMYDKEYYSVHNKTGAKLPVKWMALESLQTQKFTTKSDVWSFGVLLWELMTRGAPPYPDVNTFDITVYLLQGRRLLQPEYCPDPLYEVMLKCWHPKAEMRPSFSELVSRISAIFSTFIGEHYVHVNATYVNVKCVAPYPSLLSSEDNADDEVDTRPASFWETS
T6 sequence (P08581 1078-1345 Y1230C): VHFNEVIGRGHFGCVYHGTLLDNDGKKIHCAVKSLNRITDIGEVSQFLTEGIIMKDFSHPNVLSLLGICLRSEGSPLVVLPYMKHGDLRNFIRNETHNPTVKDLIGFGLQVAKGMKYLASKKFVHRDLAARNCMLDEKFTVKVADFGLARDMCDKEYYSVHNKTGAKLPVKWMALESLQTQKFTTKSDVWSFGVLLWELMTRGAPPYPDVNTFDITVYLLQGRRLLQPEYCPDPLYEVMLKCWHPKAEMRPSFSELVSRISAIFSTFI

SMILES	pIC50 [1]	pIC50 [2]	pIC50 [3]	pIC50 [4]	pIC50 [5]	pIC50 [6]	pIC50 [7]
COc1ccc(-c2cn(C(C)C)cc(C(=O)Nc3ccc(Oc4ccnc5cc(OC)c(OC)cc45)cn3)c2=O)c(F)c1 [Example 31, N-(5-((6,7-dimethoxyquinolin-4yl)oxy)pyridin-2-yl)-5-(2-fluoro-4-methoxyphenyl)-1-isopropyl-4-oxo-1,4-dihydropyridine-3-carboxamide]	7.64	7.39	7.35	7.25	7.33	7.16	7.14
COc1cc2nccc(Oc3ccc(NC(=O)c4cn(C(C)C)cc(-c5ccc(F)cc5OC)c4=O)nc3)c2cc1OC [Example 32, N-(5-((6,7-dimethoxyquinolin-4yl)oxy)pyridin-2-yl)-5-(4-fluoro-2-methoxyphenyl)-1-isopropyl-4-oxo-1,4-dihydropyridine-3-carboxamide]	8.05	8.52	8.49	8.00	8.38	8.17	8.15
COc1ccc2nccc(Oc3ccc(NC(=O)c4cn(C(C)C)c(C)c(-c5ccc(F)cc5)c4=O)nc3)c2c1 [Example 33, 5-(4-fluorophenyl)-1-isopropyl-N-(5-((6-methoxyquinolin-4-yl)oxy)pyridin-2-yl)-6-methyl-4-oxo-1,4-dihydropyridine-3-carboxamide]	8.00	8.41	8.31	8.28	8.34	8.57	8.30
COc1cc2nccc(Oc3ccc(NC(=O)c4cn(CCC(C)C)cc(-c5ccc(F)cc5)c4=O)nc3)c2cc1OC [Example 34, N-(5-((6,7-dimethoxyquinolin-4yl)oxy)pyridin-2-yl)-5-(4-fluorophenyl)-1-isopentyl-4-oxo-1,4-dihydropyridine-3-carboxamide]	7.85	8.40	8.24	8.26	8.13	8.38	8.39
COc1cc2nccc(Oc3ccc(NC(=O)c4cn(CCC(C)C)cc(-c5ccc(F)c(F)c5)c4=O)nc3)c2cc1OC [Example 35, 5-(3,4-difluorophenyl)-N-(5-((6,7-dimethoxyquinolin-4yl)oxy)pyridin-2-yl)-1-isopentyl-4-oxo-1,4-dihydropyridine-3-carboxamide]	7.52	7.86	7.85	8.08	7.94	7.98	8.07
COc1cc2nccc(Oc3ccc(NC(=O)c4cn(CCC(C)C)cc(-c5ccc(F)cc5F)c4=O)nc3)c2cc1OC [Example 36, 5-(2,4-difluorophenyl)-N-(5-((6,7-dimethoxyquinolin-4yl)oxy)pyridin-2-yl)-1-isopentyl-4-oxo-1,4-dihydropyridine-3-carboxamide]	7.85	8.62	8.62	8.74	8.49	8.55	8.64
COc1cc2nccc(Oc3ccc(NC(=O)c4cn(CCC(C)C)cc(-c5ccc(Cl)cc5)c4=O)nc3)c2cc1OC [Example 37]	7.52	8.00	7.91	7.98	7.79	8.03	7.99
CCn1cc(C(=O)Nc2ccc(Oc3ccnc4ccc(OC)cc34)cn2)c(=O)c(-c2ccc(F)cc2)c1 [Example 39, 1-ethyl-5-(4-fluorophenyl)-N-(5-((6-methoxyquinolin-4-yl)oxy)pyridin-2-yl)-4-oxo-1,4-dihydropyridine-3-carboxamide]	7.08	7.53	7.59	7.18	7.50	7.33	7.26
COc1ccc2nccc(Oc3ccc(NC(=O)c4cn(C)cc(-c5ccc(F)cc5)c4=O)nc3)c2c1 [Example 41, 5-(4-fluorophenyl)-N-(5-((6-methoxyquinolin-4yl)oxy)pyridin-2-yl)-1-methyl-4-oxo-1,4-dihydropyridine-3-carboxamide]	6.85	6.93	6.97	6.59	6.98	6.76	6.65
COc1cc2nccc(Oc3ccc(NC(=O)c4cn(CCN(C)C)cc(-c5ccc(Cl)cc5)c4=O)nc3)c2cc1OC [Example 42]	7.80	8.49	8.72	8.62	8.47	8.62	8.57
COc1cc2nccc(Oc3ccc(NC(=O)c4cn(CCN(C)C)cc(-c5ccc(F)c(F)c5)c4=O)nc3)c2cc1OC [Example 43, 5-(3,4-difluorophenyl)-N-(5-((6,7-dimethoxyquinolin-4-yl)oxy)pyridin-2-yl)-1-]	7.96	8.85	8.60	8.80	8.70	8.85	8.96
COc1cc2nccc(Oc3ccc(NC(=O)c4cn(CCN(C)C)cc(-c5ccc(F)cc5F)c4=O)nc3)c2cc1OC [Example 44, 5-(2,4-difluorophenyl)-N-(5-((6,7-dimethoxyquinolin-4-yl)oxy)pyridin-2-yl)-1-(2-(dimethylamino)ethyl)-4-oxo-1,4-dihydropyridine-3-carboxamide]	8.40	8.66	8.68	8.72	8.38	8.77	8.68
COc1cc2nccc(Oc3ccc(NC(=O)c4cn(C)c(C(C)C)c(-c5ccc(F)cc5)c4=O)nc3)c2cc1OC [Example 45, N-(5-((6,7-dimethoxyquinolin-4-yl)oxy)pyridin-2-yl)-5-(4-fluorophenyl)-6-isopropyl-1-methyl-4-oxo-1,4-dihydropyridine-3-carboxamide]	7.04	8.36	8.24	7.95	8.08	8.36	8.21
COc1cc2nccc(Oc3ccc(NC(=O)c4cn(CCN(C)C)cc(-c5ccc(F)cc5)c4=O)nc3)c2cc1OC [Example 46]	8.30	8.52	8.55	8.49	8.47	8.77	8.77
COc1ccc2nccc(Oc3ccc(NC(=O)c4cn(CCN(C)C)cc(-c5ccc(F)cc5)c4=O)nc3)c2c1 [Example 47]	7.25	7.99	7.84	7.51	8.07	8.06	7.72
COc1cc2c(Oc3ccc(NC(=O)c4cn(C(C)C)c(C)c(-c5ccc(F)cc5)c4=O)nc3)ccnc2cc1F [Example 48, N-(5-((7-fluoro-6-methoxyquinolin-4yl)oxy)pyridin-2-yl)-5-(4-fluorophenyl)-1-isopropyl-6-methyl-4-oxo-1,4-dihydropyridine-3-carboxamide]	8.00	8.17	8.31	7.92	8.27	8.03	8.06
